Assays:
[1] = test system: CFTR; parameters: method as in earlier work; conditions: ref [27] (GLPG-2737); ref [21], [26], [27] (ELX); cited from earlier work
[2] = molecular target: T1, WT-CFTR (Homo sapiens, UniProt P13569); experiment: YFP quenching assay in CFBE-WT-CFTR-YFP cells; type: cell-based
T1 construct: host or cells: CFBE41o-

[3] = molecular target: T2, F508del-CFTR-G550E.R553M.R555K.R1070W (3TS + RW) (Homo sapiens, UniProt P13569, DEL508-508/G550E/R1070W/R553M/R555K); experiment: CFTR immunoblotting in HEK-TREx cells expressing F508del-CFTR 3TS + RW; type: cell-based; conditions: 48 hours
T2 construct: expressed in transfected cells; host or cells: T-REx HEK293
T2 sequence (P13569 with tags, fused parts or gaps DEL508-508/G550E/R553M/R555K/R1070W): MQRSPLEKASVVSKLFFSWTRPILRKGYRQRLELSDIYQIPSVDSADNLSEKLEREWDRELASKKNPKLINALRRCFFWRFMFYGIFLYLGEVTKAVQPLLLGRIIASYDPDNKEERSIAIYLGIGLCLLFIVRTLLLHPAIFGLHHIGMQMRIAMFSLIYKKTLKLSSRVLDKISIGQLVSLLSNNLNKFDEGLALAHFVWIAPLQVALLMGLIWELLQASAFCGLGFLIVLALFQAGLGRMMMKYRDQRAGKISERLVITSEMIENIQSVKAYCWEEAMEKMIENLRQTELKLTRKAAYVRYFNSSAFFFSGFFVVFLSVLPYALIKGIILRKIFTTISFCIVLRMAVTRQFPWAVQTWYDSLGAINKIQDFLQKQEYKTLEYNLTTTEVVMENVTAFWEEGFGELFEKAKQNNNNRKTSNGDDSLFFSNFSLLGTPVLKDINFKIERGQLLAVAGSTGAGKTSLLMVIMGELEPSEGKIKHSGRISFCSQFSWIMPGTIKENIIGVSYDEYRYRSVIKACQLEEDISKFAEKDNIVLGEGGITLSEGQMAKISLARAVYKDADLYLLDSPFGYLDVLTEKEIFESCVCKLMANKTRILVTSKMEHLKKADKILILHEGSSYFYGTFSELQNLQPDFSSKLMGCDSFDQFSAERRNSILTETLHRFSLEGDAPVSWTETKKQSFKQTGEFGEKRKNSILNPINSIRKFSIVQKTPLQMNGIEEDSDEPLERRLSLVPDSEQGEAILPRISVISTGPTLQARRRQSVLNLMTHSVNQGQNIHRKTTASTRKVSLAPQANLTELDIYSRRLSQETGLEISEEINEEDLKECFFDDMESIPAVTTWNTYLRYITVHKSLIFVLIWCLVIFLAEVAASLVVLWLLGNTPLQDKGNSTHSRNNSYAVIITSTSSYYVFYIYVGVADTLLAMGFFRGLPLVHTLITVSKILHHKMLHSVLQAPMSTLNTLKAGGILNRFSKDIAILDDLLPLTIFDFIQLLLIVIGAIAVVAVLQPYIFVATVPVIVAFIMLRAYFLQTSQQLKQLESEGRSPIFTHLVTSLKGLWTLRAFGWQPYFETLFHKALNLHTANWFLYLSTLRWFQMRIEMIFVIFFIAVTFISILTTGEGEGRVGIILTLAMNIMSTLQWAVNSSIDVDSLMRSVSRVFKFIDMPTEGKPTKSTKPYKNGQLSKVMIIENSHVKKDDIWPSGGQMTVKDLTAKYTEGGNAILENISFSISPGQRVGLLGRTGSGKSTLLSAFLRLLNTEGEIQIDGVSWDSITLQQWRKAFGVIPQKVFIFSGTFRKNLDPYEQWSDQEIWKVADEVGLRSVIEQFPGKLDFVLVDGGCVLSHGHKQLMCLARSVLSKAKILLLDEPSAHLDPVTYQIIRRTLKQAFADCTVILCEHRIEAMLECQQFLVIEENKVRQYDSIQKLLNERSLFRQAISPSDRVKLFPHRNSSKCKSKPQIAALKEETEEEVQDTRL
Source text: (§1) The human CFTR expressing HEK cell pools with the mutations described below were generated by integrase-mediated homologous recombination of the CFTR sequence into the T-REx HEK293 background (Thermo Fisher Scientific). This expression system allows the tetracycline-inducible expression of genes of interest from one defined insertion site. Parental T-REx-HEK293 cells were cultivated in growth medium: Dulbecco’s modified Eagle’s medium + GlutaMAX-I (#31966, Life Technologies), 10% dialyzed FBS (Gibco, #26400), penicillin (100 U/ml), streptomycin (100 μg/ml), hygromycin B (0.1 mg/ml; Life Technologies), blasticidin (5 μg/ml; Invitrogen, #R210-01), and 0.1 mM nonessential amino acid solution (Invitrogen, #11140-035). Recombinant T-REx-HEK-CFTR cells were generated by lipofectamine transfection (Life Technologies) of plasmids containing mutated versions of CFTR (RefSeq NM_000492) and then cultivated in selection medium [growth medium containing Geneticin (1 mg/ml) (Invitrogen, #10131-027) instead of hygromycin]. The plasmid constructs were synthetized by GENEART (Thermo Fisher Scientific) and designed with the WT CFTR intron 5 to 6 (880 nucleotides) to prevent leaky expression issues during the cloning process in bacteria. […]

[4] = test system: F508del.L15W-CFTR; experiment: Site-directed mutagenesis immunoblotting, HEK-TREx, F508del.L15W-CFTR; type: cell-based, human; conditions: 40 h, 2 μM
Source text: as §1

[5] = test system: F508del.K14A-CFTR; experiment: Site-directed mutagenesis immunoblotting, HEK-TREx, F508del.K14A-CFTR; type: cell-based, human; conditions: 40 h, 2 μM
Source text: as §1

[6] = molecular target: T3, L206W CFTR (Homo sapiens, UniProt P13569, L206W); experiment: CFTR correction (immunoblotting), HEK-TREx, L206W; type: cell-based; conditions: 48 hours, IDOR-3 2 μM, IDOR-4 0.4 μM, TEZ 2 μM + ELX 0.4 μM
T3 construct: expressed in transfected cells; host or cells: T-REx HEK293
T3 sequence (P13569 whole entry L206W): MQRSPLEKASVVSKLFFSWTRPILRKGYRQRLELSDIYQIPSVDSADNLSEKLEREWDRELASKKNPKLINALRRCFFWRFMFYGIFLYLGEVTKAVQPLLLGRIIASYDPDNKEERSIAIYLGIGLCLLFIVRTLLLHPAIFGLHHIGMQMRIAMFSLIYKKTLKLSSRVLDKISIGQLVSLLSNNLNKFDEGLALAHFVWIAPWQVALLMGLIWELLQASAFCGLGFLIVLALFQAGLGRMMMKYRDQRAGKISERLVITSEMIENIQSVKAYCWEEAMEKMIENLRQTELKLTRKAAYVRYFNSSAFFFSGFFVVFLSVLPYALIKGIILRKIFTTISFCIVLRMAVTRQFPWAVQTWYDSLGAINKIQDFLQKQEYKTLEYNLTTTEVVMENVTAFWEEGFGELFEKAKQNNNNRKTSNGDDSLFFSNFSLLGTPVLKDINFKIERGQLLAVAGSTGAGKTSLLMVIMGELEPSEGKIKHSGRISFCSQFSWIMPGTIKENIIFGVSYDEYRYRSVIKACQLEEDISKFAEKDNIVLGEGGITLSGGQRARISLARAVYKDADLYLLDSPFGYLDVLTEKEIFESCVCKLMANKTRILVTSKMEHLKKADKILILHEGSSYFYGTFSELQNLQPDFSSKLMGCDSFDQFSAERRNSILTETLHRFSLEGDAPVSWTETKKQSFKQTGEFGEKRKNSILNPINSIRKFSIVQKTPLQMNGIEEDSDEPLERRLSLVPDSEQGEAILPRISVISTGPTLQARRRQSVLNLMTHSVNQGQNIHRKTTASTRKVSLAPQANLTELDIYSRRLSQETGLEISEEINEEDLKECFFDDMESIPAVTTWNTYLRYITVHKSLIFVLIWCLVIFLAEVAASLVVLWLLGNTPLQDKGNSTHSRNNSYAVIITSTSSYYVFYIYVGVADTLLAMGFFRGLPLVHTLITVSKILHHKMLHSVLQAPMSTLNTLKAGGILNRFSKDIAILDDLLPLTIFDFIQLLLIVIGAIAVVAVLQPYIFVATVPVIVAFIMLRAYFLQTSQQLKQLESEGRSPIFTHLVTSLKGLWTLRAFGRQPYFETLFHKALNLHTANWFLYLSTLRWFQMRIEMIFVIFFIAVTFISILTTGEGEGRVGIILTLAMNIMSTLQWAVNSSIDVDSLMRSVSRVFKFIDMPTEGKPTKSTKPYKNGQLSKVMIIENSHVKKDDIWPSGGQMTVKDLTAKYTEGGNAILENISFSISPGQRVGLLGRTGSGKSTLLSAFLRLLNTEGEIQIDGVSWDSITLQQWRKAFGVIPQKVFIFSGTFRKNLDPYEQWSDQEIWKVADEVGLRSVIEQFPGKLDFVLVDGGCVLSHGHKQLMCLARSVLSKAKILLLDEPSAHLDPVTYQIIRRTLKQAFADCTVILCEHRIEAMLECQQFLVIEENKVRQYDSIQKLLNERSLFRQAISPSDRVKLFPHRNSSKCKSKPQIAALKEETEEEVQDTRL
Source text: as §1

[7] = molecular target: T4, R347P CFTR (Homo sapiens, UniProt P13569, R347P); experiment: CFTR correction (immunoblotting), HEK-TREx, R347P; type: cell-based; conditions: 48 hours, IDOR-3 2 μM, IDOR-4 0.4 μM, TEZ 2 μM + ELX 0.4 μM
T4 construct: expressed in transfected cells; host or cells: T-REx HEK293
T4 sequence (P13569 whole entry R347P): as the sequence (P13569 whole entry L206W) above, with W206L, R347P counted along it
Source text: as §1

[8] = molecular target: T5, S945L CFTR (Homo sapiens, UniProt P13569, S945L); experiment: CFTR correction (immunoblotting), HEK-TREx, S945L; type: cell-based; conditions: 48 hours, IDOR-3 2 μM, IDOR-4 0.4 μM, TEZ 2 μM + ELX 0.4 μM
T5 construct: expressed in transfected cells; host or cells: T-REx HEK293
T5 sequence (P13569 whole entry S945L): as the sequence (P13569 whole entry L206W) above, with W206L, S945L counted along it
Source text: as §1

[9] = molecular target: T6, M1101K CFTR (Homo sapiens, UniProt P13569, M1101K); experiment: CFTR correction (immunoblotting), HEK-TREx, M1101K; type: cell-based; conditions: 48 hours, IDOR-3 2 μM, IDOR-4 0.4 μM, TEZ 2 μM + ELX 0.4 μM
T6 construct: expressed in transfected cells; host or cells: T-REx HEK293
T6 sequence (P13569 whole entry M1101K): as the sequence (P13569 whole entry L206W) above, with W206L, M1101K counted along it
Source text: as §1

[10] = molecular target: T7, R1066C CFTR (Homo sapiens, UniProt P13569, R1066C); experiment: CFTR correction (immunoblotting), HEK-TREx, R1066C; type: cell-based; conditions: 48 hours, IDOR-3 2 μM, IDOR-4 0.4 μM, TEZ 2 μM + ELX 0.4 μM
T7 construct: expressed in transfected cells; host or cells: T-REx HEK293
T7 sequence (P13569 whole entry R1066C): as the sequence (P13569 whole entry L206W) above, with W206L, R1066C counted along it
Source text: as §1

[11] = molecular target: T8, G85E CFTR (Homo sapiens, UniProt P13569, G85E); experiment: CFTR correction (immunoblotting), HEK-TREx, G85E; type: cell-based; conditions: 48 hours, IDOR-3 2 μM, IDOR-4 0.4 μM, TEZ 2 μM + ELX 0.4 μM
T8 construct: expressed in transfected cells; host or cells: T-REx HEK293
T8 sequence (P13569 whole entry G85E): as the sequence (P13569 whole entry L206W) above, with G85E, W206L counted along it
Source text: as §1

[12] = molecular target: T9, I507del CFTR (Homo sapiens, UniProt P13569, DEL507-507); experiment: CFTR correction (immunoblotting), HEK-TREx, I507del; type: cell-based; conditions: 48 hours, IDOR-3 2 μM, IDOR-4 0.4 μM, TEZ 2 μM + ELX 0.4 μM
T9 construct: expressed in transfected cells; host or cells: T-REx HEK293
T9 sequence (P13569 with tags, fused parts or gaps DEL507-507): as the sequence (P13569 with tags, fused parts or gaps DEL508-508/G550E/R553M/R555K/R1070W) above, with I507F, E549G, M552R, K554R, W1069R counted along it
Source text: as §1

[13] = molecular target: T10, R560T CFTR (Homo sapiens, UniProt P13569, R560T); experiment: CFTR correction (immunoblotting), HEK-TREx, R560T; type: cell-based; conditions: 48 hours, IDOR-3 2 μM, IDOR-4 0.4 μM, TEZ 2 μM + ELX 0.4 μM
T10 construct: expressed in transfected cells; host or cells: T-REx HEK293
T10 sequence (P13569 whole entry R560T): as the sequence (P13569 whole entry L206W) above, with W206L, R560T counted along it
Source text: as §1

[14] = molecular target: T11, V520F CFTR (Homo sapiens, UniProt P13569, V520F); experiment: CFTR correction (immunoblotting), HEK-TREx, V520F; type: cell-based; conditions: 48 hours, IDOR-3 2 μM, IDOR-4 0.4 μM, TEZ 2 μM + ELX 0.4 μM
T11 construct: expressed in transfected cells; host or cells: T-REx HEK293
T11 sequence (P13569 whole entry V520F): as the sequence (P13569 whole entry L206W) above, with W206L, V520F counted along it
Source text: as §1

[15] = molecular target: T12, N1303K CFTR (Homo sapiens, UniProt P13569, N1303K); experiment: CFTR correction (immunoblotting), HEK-TREx, N1303K; type: cell-based; conditions: 48 hours, IDOR-3 2 μM, IDOR-4 0.4 μM, TEZ 2 μM + ELX 0.4 μM
T12 construct: expressed in transfected cells; host or cells: T-REx HEK293
T12 sequence (P13569 whole entry N1303K): as the sequence (P13569 whole entry L206W) above, with W206L, N1303K counted along it
Source text: as §1

T1 sequence (P13569 whole entry): as the sequence (P13569 whole entry L206W) above, with W206L counted along it

Compound	acute effect on CFTR currents [1]	increase in WT-CFTR function [2]	effect of introduction of the RW mutation on C-band expression [3]	correction by macrocycles versus [LUM + BAM] [4]	weaker correction by macrocycles as compared to [LUM + BAM] [5]	correction of L206W [6]	correction of R347P [7]	correction of S945L [8]	correction of M1101K [9]	correction of R1066C [10]	correction of G85E [11]	correction of I507del [12]	correction of R560T [13]	correction of V520F [14]	correction of N1303K [15]
Cc1nn(C)cc1S(=O)(=O)NC(=O)c1ccc(-n2ccc(OCC(C)(C)C(F)(F)F)n2)nc1N1C[C@@H](C)CC1(C)C [ELX, elexacaftor]	copotentiating effects														
COc1cc(CCNC(=O)C2CC(=O)N(C)C(CC(C)C)C(=O)N3CCCCC3C(=O)NC(Cc3ccccc3)COc3ccc4ncc(F)cc4c3C(=O)N2)on1 (stereo not drawn) [IDOR-3]		~ 2 fold	no additional effect	little difference	two- to fourfold	highly effective	highly effective	highly effective	highly effective	highly effective	highly effective	highly effective	highly effective	highly effective	only minor activity
